Experimental data reported in patent US10960005B2, “Treatment of relapsed and/or refractory solid tumors and non-hodgkin's lymphomas” (CELGENE QUANTICEL RESEARCH, INC., priority 2016, dated 2021).
Where two headings read alike, the source gives them in different places.

Key:
MKL-1 hMCC cells = test: hMCC cell proliferation inhibition (2D, CellTiter-Glo), MKL-1; format: cell-based, human; conditions: MKL-1, 2D format, 7 days
Procedure: MKL-1 hMCC cells were cultured in vitro in RPMI-1640 culture medium (Life Technologies, Carlsbad, Calif.) containing 100 units/mL penicdlin G sodium and 100 μg/mL streptomycin sulfate (cRPMI) supplemented with 10% fetal bovine serum (FBS). MS-1 hMCC cells were cultured in vitro in cRPMI supplemented with 20% FBS.
Four to six replicates were performed at each concentration.

[1] = Pharmacokinetics after single IV and oral dose, CD-1 mice; format: in vivo; conditions: Mouse, female
Procedure: AUClast=area under the plasma concentration-time curve from time zero to time of last measurable concentration; Cmax=maximum plasma concentration; F=oral bioavailability; hr=hour, PK=pharmacokinetic; SD=standard deviation; t1/2 z=apparent half-life of the terminal phase of the concentration-time curve; tmax=time of Cmax. In mouse, PK parameters were determined using composite plasma samples obtained from n=3animals/time point. In other species, PK parameters are from n=3 animals and values shown are mean and SD (in parentheses).

[2] = test system: LU2514 SCLC patient-derived xenograft; test: Efficacy in LU2514 HuPrime SCLC PDX model; format: in vivo, mice; conditions: Day 28
Procedure: Tumor growth inhibition analysis was performed on Day 28 post treatment, the last day of dosing.
In both studies with LU2514 animal model.

MS-1 hMCC xenograft = test: Efficacy in MS-1 hMCC xenograft (NSG mice); format: in vivo; conditions: 5 mg/kg PO 5 on/2 off; head prints Day-15, TGI analysis on Day 36
[3] = test system: LXFS 573 SCLC patient-derived xenograft; format: in vivo
[4] = test system: ST18 and FREM2 expression in MS-1 tumors; test: In vivo xenograft dose-response of PD biomarker gene expression, MS-1; design: species or system mice; conditions: 1, 2.5, or 5 mg/kg PO BID ×4.5; tumors 4 h after last dose
Source text: Female NSG mice bearing palpable hMCC MKL-1 and MS-1 tumors were randomized into four groups of three mice each. […] The fourth group was orally administered vehicle as a control on the BID schedule. Four hours after the last dosing, tumors were collected into RNA later and stored frozen.
Total RNA was eluted in RNase-free water and analyzed by qRT-PCR.

[5] = Compound A 1 mg/kg in combination with etoposide 24 mg/kg

COc1ccc(-c2c(-c3ccc(C#N)c(F)c3)nc(N3CCC(N)CC3)n(C)c2=O)cc1F [Compound A]
IC50 (MKL-1 hMCC cells): 0.0184 µM
AUC∞ ([1]; single IV 5 mg base/kg): 2664 ng·h/mL
CL ([1]; single IV 5 mg base/kg): 32 mL/min/kg
Vss ([1]; single IV 5 mg base/kg): 7.51 L/kg
t1/2,z ([1]; single IV 5 mg base/kg): 3.8 h
% F ([1]; single oral 10 mg base/kg): 38%
Cmax ([1]; single oral 10 mg base/kg): 510 ng/mL
t1/2,z ([1]; single oral 10 mg base/kg): 1.7 h
tmax ([1]; single oral 10 mg base/kg): 0.5 h
% TGI ([2]; 5 mg base/kg PO QD × 28): 43%
% TGI ([2]; 10 mg base/kg PO QD × 28): 61%
Median Tumor Volumes Day-15 (MS-1 hMCC xenograft): 129 mm^3
% TGD [3, 5]: 38%
TGD [3, 5]: 16 days
median TTE [3, 5]: 59 days
survivors on Day 133 ([3]; Compound A 1 mg/kg in combination with etoposide 24 mg/kg, of eight): 1
TGD ([3]; Compound A 2.5 mg/kg in combination with etoposide 24 mg/kg): 79 days
survivors on Day 133 ([3]; Compound A 2.5 mg/kg in combination with etoposide 24 mg/kg, of eight): 3
TGD ([3]; Compound A 5 mg/kg in combination with etoposide 24 mg/kg): 91 days
survivors on Day 133 ([3]; Compound A 5 mg/kg in combination with etoposide 24 mg/kg, of eight): 8
study survivors on Day 133 ([3]; Compound A monotherapy 5 mg/kg, of eight): seven
ST18 and FREM2 change in gene expression in vivo [4]: ≥ 2 fold
